Consider 16 molecules from ChEMBL document CHEMBL4304809 (ACS Med Chem Lett, 2019).

The target of data set [1] is Mitogen-activated protein kinase kinase kinase 14 (Homo sapiens, UniProt Q99558). The data set can be described thus: Inhibition of NIK (unknown origin) using ATP as substrate by transcreener ADP assay based fluorescence correlation spectroscopic analysis. The format is single protein.
Data set [2] addresses T1, Serine/threonine-protein kinase D1 (Homo sapiens, UniProt Q15139).
T1 sequence (Q15139 whole entry): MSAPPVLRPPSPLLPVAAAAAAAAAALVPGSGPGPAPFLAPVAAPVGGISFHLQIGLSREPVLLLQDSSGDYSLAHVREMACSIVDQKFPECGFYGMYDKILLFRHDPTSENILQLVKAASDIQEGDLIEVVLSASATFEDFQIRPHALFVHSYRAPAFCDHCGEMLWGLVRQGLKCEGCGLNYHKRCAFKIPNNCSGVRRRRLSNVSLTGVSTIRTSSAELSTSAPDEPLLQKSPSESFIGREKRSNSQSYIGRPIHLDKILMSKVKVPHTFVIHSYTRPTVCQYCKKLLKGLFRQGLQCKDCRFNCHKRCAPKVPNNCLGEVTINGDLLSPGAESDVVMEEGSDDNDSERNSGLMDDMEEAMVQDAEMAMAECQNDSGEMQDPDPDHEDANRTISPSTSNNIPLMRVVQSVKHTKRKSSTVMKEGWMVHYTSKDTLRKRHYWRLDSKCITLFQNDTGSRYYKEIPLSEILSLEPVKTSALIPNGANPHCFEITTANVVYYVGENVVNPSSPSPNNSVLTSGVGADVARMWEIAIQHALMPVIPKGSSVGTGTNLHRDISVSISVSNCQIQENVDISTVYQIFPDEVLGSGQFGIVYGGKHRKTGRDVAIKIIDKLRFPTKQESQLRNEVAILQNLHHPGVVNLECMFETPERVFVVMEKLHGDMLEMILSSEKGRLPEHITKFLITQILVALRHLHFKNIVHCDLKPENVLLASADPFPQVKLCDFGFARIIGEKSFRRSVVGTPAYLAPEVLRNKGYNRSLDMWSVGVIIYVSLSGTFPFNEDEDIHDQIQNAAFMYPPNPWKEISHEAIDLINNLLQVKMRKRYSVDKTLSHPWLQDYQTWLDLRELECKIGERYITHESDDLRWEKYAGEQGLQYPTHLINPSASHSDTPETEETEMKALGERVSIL
The data set can be described thus: Inhibition of full length GST-tagged human PRKD1 expressed in Baculovirus expression system using ATP as substrate incubated for 1 to 2 hrs by transcreener ADP assay based fluorescence correlation spectroscopic analysis.

In data set [3] the target is Aurora kinase B (Homo sapiens) (UniProt Q96GD4). The data set can be described thus: Inhibition of full length His-tagged recombinant human AURKB expressed in Baculovirus expression system at 0.1 uM using Fluorescein-PKC as substrate incubated for 1 hr by TR-FRET assay relative to control. For orientation: In TR-FRET formats the signal depends on donor and acceptor labels being close together.

In data set [4] the target is Mitogen-activated protein kinase kinase kinase kinase 4 (Homo sapiens) (UniProt O95819). Put plainly: Inhibition of recombinant GST-tagged human MAP4K4 catalytic domain (1 to 328 residues) expressed in Baculovirus expression system at 0.1 uM using Fluorescein-PKC as substrate incubated for 1 hr by TR-FRET assay relative to control.
The target of data set [5] is T2, Serine/threonine-protein kinase D1 (Homo sapiens) (UniProt Q15139).
T2 sequence (whole entry): T1 sequence (Q15139 whole entry)
Put plainly: Inhibition of full length GST-tagged recombinant human PRKD1 expressed in Baculovirus expression system at 0.1 uM using Fluorescein-CREBtide as substrate incubated for 1 hr by TR-FRET assay relative to control.

Data set [6] deals with Misshapen-like kinase 1 (Homo sapiens) (UniProt Q8N4C8). Put plainly: Inhibition of recombinant GST-tagged human MINK1 catalytic domain (1 to 320 residues) expressed in Baculovirus expression system at 0.1 uM using Fluorescein-PKC as substrate incubated for 1 hr by TR-FRET assay relative to control.
A short description of data set [7]: Kinetic solubility of the compound. In kind it is physicochemical. Conditions: read-out: Kinetic_solubility.
Data set [8] in a line: Lipophilicity, log D of the compound at pH 7.4. The conditions noted are these: buffer. The format is physicochemical.
In data set [9] the target is Tyrosine-protein kinase JAK1 (Homo sapiens) (UniProt P23458). The data set can be described thus: Inhibition of recombinant GST-tagged human JAK1 catalytic domain (866 to 1154 residues) expressed in Baculovirus expression system at 0.1 uM using GFP-STAT1 as substrate incubated for 1 hr by TR-FRET assay relative to control.
Data set [10] deals with Serine/threonine-protein kinase PAK 4 (Homo sapiens) (UniProt O96013). Put plainly: Inhibition of recombinant GST-tagged human PAK4 catalytic domain (295 to 591 residues) expressed in Baculovirus expression system at 0.1 uM using Fluorescein-Crosstide as substrate incubated for 1 hr by TR-FRET assay relative to control.
Data set [11] addresses RAC-alpha serine/threonine-protein kinase (Homo sapiens) (UniProt P31749). Put plainly: Inhibition of full length His-tagged recombinant human AKT1 expressed in Baculovirus expression system at 0.1 uM using Fluorescein-Crosstide as substrate incubated for 1 hr by TR-FRET assay relative to control.

pKi: −log10 of the molar value. In brackets after ≈: the same amount, converted by molar mass. Activity calls are given as the source filed them. The rule behind the calls is not given here. Some results are limits rather than exact numbers.

Mitogen-activated protein kinase kinase kinase 14, sequence (Q99558 whole entry): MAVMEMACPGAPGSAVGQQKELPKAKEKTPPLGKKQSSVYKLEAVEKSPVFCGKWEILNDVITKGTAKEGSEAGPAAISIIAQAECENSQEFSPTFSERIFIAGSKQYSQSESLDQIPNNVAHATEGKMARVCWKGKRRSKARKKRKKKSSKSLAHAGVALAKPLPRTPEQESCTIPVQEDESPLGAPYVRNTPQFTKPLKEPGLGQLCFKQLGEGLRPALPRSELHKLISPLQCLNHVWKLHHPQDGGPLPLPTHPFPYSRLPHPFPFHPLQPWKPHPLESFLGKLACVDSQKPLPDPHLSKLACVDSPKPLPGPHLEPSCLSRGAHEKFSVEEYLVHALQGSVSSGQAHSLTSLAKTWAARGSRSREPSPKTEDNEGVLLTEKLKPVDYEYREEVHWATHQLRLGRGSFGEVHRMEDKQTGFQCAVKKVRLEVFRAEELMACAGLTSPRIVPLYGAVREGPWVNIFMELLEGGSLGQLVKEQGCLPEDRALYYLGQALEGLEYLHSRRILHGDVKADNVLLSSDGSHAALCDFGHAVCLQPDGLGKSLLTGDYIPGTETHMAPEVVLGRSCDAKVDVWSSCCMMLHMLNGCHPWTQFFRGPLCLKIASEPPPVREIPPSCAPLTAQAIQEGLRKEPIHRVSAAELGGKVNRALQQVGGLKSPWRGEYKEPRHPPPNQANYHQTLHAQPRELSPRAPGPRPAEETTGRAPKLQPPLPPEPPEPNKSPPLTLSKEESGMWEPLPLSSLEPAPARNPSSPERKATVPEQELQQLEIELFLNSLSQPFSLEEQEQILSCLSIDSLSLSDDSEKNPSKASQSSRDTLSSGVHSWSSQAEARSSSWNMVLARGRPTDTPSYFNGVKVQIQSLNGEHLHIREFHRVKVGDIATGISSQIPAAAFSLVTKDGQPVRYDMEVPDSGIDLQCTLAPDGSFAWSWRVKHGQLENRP
Mitogen-activated protein kinase kinase kinase kinase 4 (Homo sapiens), sequence (O95819 2-1239 limits assumed): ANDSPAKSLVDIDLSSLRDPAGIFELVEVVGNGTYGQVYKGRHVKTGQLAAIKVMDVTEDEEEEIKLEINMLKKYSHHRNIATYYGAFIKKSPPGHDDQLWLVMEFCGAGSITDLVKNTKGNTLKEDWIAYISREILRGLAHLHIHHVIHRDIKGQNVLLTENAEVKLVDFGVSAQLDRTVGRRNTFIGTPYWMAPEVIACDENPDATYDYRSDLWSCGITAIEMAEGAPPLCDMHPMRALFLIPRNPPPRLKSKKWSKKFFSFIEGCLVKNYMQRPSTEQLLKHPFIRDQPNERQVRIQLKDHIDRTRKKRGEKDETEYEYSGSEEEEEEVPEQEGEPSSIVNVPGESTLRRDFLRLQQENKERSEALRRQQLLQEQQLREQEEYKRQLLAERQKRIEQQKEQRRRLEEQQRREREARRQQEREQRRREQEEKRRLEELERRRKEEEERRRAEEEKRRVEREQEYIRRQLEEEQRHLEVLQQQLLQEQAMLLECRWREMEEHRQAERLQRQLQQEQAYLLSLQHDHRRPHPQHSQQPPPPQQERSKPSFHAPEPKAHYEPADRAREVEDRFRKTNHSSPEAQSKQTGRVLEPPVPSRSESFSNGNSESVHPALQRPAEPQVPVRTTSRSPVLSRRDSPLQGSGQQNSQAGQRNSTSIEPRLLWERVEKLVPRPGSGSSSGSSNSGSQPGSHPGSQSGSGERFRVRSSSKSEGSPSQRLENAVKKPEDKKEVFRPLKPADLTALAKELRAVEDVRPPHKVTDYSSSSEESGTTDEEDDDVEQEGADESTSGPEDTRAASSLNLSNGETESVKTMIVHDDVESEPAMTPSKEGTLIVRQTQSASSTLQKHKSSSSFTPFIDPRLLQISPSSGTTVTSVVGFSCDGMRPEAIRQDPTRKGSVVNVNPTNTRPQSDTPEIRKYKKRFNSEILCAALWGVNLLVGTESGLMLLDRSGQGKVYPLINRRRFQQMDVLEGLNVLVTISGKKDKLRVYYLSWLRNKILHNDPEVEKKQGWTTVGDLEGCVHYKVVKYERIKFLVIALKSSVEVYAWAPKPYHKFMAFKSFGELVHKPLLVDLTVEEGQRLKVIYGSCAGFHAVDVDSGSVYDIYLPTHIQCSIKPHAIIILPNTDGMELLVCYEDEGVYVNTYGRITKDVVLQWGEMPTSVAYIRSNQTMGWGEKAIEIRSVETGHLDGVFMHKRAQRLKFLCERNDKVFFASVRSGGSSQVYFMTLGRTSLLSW
Misshapen-like kinase 1 (Homo sapiens), sequence (Q8N4C8 whole entry, looked up, the tested form may be a part): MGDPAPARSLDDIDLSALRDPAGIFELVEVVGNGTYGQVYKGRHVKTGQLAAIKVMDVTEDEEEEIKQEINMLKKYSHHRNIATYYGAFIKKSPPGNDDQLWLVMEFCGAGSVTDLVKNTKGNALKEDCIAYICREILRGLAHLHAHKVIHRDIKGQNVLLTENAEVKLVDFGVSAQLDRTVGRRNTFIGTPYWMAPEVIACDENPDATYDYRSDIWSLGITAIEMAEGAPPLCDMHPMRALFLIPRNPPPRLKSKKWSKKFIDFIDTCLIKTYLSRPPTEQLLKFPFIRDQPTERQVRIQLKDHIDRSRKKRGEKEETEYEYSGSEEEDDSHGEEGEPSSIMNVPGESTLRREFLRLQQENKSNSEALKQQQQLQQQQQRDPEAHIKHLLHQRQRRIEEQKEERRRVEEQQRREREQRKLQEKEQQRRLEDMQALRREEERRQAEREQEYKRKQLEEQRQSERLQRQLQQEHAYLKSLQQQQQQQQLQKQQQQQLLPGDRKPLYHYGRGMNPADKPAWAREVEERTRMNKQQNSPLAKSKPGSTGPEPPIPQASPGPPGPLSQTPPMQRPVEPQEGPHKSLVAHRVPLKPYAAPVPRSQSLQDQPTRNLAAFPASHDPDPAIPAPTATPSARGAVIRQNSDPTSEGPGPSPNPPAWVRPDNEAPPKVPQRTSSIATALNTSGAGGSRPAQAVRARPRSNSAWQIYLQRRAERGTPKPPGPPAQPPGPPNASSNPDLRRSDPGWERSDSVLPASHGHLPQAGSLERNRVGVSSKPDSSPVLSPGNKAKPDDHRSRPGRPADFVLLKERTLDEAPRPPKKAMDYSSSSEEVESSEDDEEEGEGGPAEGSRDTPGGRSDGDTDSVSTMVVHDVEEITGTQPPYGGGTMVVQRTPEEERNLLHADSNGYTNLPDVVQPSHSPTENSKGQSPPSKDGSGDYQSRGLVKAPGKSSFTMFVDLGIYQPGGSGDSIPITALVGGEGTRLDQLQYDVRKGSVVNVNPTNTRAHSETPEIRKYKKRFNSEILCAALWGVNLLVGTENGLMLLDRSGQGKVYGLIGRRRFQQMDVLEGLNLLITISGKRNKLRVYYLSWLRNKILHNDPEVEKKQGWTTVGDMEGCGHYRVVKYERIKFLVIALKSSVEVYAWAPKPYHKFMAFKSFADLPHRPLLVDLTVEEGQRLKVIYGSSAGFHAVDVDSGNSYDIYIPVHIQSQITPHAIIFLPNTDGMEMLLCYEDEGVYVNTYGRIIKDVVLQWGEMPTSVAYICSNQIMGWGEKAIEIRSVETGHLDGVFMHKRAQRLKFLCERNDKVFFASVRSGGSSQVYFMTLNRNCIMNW
Aurora kinase B (Homo sapiens), sequence (Q96GD4 whole entry): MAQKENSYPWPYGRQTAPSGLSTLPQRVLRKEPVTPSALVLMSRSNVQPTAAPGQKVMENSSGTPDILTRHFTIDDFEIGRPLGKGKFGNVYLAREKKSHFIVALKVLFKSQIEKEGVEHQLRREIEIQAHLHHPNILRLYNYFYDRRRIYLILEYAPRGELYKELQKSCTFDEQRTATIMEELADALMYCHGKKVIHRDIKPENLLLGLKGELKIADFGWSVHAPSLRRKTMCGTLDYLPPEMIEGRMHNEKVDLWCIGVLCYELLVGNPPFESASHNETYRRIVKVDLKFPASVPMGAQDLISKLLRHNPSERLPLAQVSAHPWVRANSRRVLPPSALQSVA
Tyrosine-protein kinase JAK1 (Homo sapiens), sequence (P23458 whole entry, the tested form may be a part): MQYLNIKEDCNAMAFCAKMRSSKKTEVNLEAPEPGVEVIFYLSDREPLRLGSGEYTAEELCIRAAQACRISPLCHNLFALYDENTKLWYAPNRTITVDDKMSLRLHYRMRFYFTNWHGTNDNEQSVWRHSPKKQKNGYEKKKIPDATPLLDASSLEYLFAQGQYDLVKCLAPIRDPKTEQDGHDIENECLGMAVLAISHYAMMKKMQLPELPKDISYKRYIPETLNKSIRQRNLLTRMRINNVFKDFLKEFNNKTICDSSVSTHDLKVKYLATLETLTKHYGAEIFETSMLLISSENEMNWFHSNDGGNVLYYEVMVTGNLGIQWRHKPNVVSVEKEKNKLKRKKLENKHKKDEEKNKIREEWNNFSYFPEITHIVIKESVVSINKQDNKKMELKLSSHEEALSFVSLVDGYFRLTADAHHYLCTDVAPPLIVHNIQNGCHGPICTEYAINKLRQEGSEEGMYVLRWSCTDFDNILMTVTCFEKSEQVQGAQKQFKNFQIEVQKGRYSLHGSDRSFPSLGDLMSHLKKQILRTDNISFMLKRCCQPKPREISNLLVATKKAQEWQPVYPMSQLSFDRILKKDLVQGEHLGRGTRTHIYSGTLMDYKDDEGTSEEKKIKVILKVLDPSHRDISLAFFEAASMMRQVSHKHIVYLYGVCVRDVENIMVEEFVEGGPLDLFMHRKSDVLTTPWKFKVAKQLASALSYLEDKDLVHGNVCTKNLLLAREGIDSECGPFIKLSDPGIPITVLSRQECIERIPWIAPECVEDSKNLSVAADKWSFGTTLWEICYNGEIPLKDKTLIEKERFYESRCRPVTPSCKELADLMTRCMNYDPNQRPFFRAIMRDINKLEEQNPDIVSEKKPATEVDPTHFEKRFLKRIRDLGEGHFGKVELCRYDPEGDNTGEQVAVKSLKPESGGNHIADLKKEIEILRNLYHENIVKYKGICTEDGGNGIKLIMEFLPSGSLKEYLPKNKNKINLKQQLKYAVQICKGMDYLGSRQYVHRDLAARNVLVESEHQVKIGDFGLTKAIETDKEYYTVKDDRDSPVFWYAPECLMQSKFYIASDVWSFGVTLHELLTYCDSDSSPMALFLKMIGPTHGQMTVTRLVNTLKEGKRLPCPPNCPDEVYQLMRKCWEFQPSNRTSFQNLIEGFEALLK

What is called pKi is the Ki on a negative log10 scale, so that one unit is a factor of ten. Read a low pKi as a large Ki. Take `CCOc1nc2ccc(C#C[C@](C)(O)c3ncc(C)o3)cc2n1-c1ccnc(N)n1`: the negative logarithm of the Ki (pKi) is 6.20 in data set [1] and 7.21 in [2].

Consider `Cc1cc([C@](C)(O)C#Cc2cc3c(cc2F)C2CC(C2)n2cc(C(N)=O)nc2-3)no1`, for which the pKi in data set [1] was 9.00; in data set [2], 8.23.

On to `Cc1cc([C@](C)(O)C#Cc2ccc3c(c2)-c2nc(C(N)=O)cn2C2CC3C2)no1`, for which the pKi was 9.10 in [1] and 9.05 in [2].

By inhibition is commonly meant the change of the read-out against control, counted positive when it falls. In general, logD refers to lipophilicity at a set pH, counting ionised and neutral species. The low end stands for lower lipophilicity, the high end for higher lipophilicity. As for `CNC(=O)c1c(C(N)=O)nc2n1C1CC(C1)c1ccc(C#CC(C)(C)c3ncc(C)o3)cc1-2`, the pKi in data set [1] is less than 5.90; in [2], more than 9.70. Moreover, the values for the inhibition in data set [3], in [4] and in data set [6] were 45%, 57% and 51%, respectively. Also, in [5], the inhibition entry is “Active”. Moreover, the solubility kinetic in data set [7] was 13 µM (≈ 5.77 µg/mL). Further, in data set [8], the logD was 3.7.

In the case of `Cc1cnc([C@@](C)(O)C#Cc2ccc3c(c2)-c2nc(C(N)=O)cn2C2CC3C2)o1`, the negative logarithm of the Ki (pKi) in data set [2] was 8.38.

In turn, `CNC(=O)c1c(C(N)=O)nc2n1C1CC(C1)c1cc(F)c(C#C[C@@](C)(O)c3cc(C)on3)cc1-2` had a pKi in [1] of 7.85.

As to `Cc1cnc(C(C)(C)C#Cc2ccc3c(c2)-c2nc(C(N)=O)c(C4CC4)n2C2CC3C2)o1`, the negative-log Ki (pKi) was less than 5.90 in data set [1] and more than 9.70 in [2]. Besides, the inhibition in [3] is more than 40%. The solubility kinetic in data set [7] amounted to 35 µM (≈ 14.9 µg/mL). Also, the logD in data set [8] amounted to 4.4.

Regarding `NC(=O)c1cn2c(n1)-c1cc(C#CC3(O)CCCC3)ccc1C1CC2C1`, the pKi in data set [1] is 8.00; in data set [2] it was 7.60.

As for `Cc1cc([C@](C)(O)C#Cc2ccc3c(c2)-c2nc(C(N)=O)cn2CCO3)no1`, the results for the pKi in [1] and in [2] were 8.51 and 8.31, respectively.

Regarding `Cc1cc([C@@](C)(O)C#Cc2ccc3c(c2)-c2nc(C(N)=O)cn2C2CC3C2)no1`, the negative logarithm of the Ki (pKi) was 6.24 in [1] and 7.19 in data set [2].

Consider `Cc1cc([C@@](C)(O)C#Cc2ccc3c(c2)-c2nc(C(N)=O)cn2CCO3)no1`, for which the negative logarithm of the Ki (pKi) was less than 6.60 in data set [1] and 7.85 in data set [2].

In turn, `Cc1cnc([C@](C)(O)C#Cc2ccc3c(c2)-c2nc(C(N)=O)cn2C2CC3C2)o1` gave a pKi in data set [2] of more than 9.70.

`Cc1cc([C@](C)(O)C#Cc2cc3c(cc2F)C2CC(C2)n2c-3nc(C(N)=O)c2C2CC2)no1` gave a pKi in data set [2] of more than 9.70. In data set [8], this molecule had a logD of 3.7.

On to `Cc1cc([C@@](C)(O)C#Cc2ccc3c(c2)-c2nc(C(N)=O)c(C4CC4)n2CCO3)no1`, for which the inhibition in [9] was 1%; in data set [10], 7%; in data set [11], 4%; in [4] it was 21%; in data set [5], more than 30%; in [6] it was 20%. The pKi is not above 5.90 in data set [1] and more than 9.70 in [2]. Moreover, the solubility kinetic in data set [7] was determined as 124 µM (≈ 51.9 µg/mL). The same molecule had a logD in data set [8] of 2.

As to `CCOc1nc2ccc(C#C[C@@](C)(O)c3ncc(C)o3)cc2n1-c1ccnc(N)n1`, the pKi in [1] was 9.80; in data set [2], 8.44.

Regarding `NC(=O)c1cn2c(n1)-c1cc(C#CC3CCCC3)ccc1C1CC2C1`, the pKi in data set [1] is less than 5.90; in [2], 7.36.
